Source: BindingDB's records for patent US12077506 (Nikang Therapeutics, 2024)

Target: Endothelial PAS domain-containing protein 1 (Homo sapiens, UniProt Q99814)
Assay: VEGF ELISA Assay
Experimental: Four hours later, compounds were dispensed into wells by Tecan D300e digital dispenser with starting concentration of 10 uM and log of dilution down to 1 nM as final concentration. Each concentration of treatment was performed in duplicate. About 20 hours later, medium was removed and fresh medium was added, followed by compounds treatment as described above. After 24 hours, cell culture medium was collected to determine VEGF concentration using an ELISA kit (R&D systems, cat #DVE00) following the manufacturer's instruction.

Chain of Endothelial PAS domain-containing protein 1 (Q99814 whole entry, the tested form may be a part): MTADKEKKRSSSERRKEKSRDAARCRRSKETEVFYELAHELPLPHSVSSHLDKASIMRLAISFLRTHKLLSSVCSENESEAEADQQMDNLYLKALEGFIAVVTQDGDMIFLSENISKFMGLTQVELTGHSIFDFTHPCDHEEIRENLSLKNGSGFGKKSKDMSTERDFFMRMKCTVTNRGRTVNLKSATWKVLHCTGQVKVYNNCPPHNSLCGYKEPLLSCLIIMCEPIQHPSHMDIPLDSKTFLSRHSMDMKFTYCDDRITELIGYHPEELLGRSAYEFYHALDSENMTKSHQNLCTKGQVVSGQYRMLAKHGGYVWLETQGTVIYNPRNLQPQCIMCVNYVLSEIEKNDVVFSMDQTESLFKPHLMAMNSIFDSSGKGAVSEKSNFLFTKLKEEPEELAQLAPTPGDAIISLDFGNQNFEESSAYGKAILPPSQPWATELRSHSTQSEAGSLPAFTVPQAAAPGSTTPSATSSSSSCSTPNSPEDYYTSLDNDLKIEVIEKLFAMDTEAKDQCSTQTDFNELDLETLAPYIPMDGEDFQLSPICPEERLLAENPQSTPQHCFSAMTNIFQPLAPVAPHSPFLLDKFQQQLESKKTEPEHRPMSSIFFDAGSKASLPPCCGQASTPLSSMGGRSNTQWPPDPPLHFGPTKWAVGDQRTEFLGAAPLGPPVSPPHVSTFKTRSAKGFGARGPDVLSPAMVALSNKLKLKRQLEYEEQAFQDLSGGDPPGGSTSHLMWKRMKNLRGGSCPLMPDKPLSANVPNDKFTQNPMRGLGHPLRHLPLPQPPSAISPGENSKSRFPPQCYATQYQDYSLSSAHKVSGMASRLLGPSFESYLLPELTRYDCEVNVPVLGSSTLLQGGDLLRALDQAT

## OC1c2c(ccc(Oc3cc(F)cc(F)c3)c2C(F)F)C(F)(F)C1(F)F (stereo unspecified) [US12077506, Compound I-4]
  EC50: 4 nM
